The term IC50 denotes the concentration that inhibits the measured activity by half.

These results are taken from patent publication US8846685B2, “Human protein tyrosine phosphatase inhibitors and methods of use” (Aerpio Therapeutics Inc., priority 2006, dated 2014).

For the assay, the target named is T1, PTP1B (Homo sapiens, UniProt P18031).
T1 sequence (P18031 1-435): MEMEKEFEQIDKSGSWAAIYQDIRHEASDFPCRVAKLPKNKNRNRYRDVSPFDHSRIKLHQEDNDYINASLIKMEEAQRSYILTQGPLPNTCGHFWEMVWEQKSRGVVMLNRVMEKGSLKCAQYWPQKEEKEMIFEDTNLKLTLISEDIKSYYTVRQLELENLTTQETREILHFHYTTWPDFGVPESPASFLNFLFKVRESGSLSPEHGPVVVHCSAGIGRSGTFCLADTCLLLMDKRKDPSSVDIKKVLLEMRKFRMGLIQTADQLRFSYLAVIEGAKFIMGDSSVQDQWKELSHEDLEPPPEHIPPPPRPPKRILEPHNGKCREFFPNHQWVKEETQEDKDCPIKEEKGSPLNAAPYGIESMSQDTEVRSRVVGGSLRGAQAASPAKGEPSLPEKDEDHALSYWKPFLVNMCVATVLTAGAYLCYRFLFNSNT
The experiment in a line: PTP1B activity (IC50). In kind it is biochemical.
`CCc1cnc([C@H](Cc2ccc(NS(=O)(=O)O)cc2)NC(=O)[C@H](Cc2ccccc2)N(C)C(=O)OC)s1` [compound 81] displayed an IC50 of 0.64 µM.
Under `COC(=O)N[C@@H](Cc1ccccc1)C(=O)N[C@@H](Cc1ccc(NS(=O)(=O)O)cc1)c1cscn1` [compound 76] stands 0.37 µM; under `COC(=O)N[C@@H](Cc1ccccc1)C(=O)N[C@@H](Cc1ccc(NS(=O)(=O)O)cc1)c1csc(-c2ccc(-c3ccccn3)s2)n1` [compound 77], 0.51 µM.
The result for `COC(=O)N[C@@H](Cc1ccccc1)C(=O)N[C@@H](Cc1ccc(NS(=O)(=O)O)cc1)c1nc(-c2ccsc2)cs1` [compound 73] reads 0.9 µM; that for `COC(=O)N[C@@H](Cc1ccccc1)C(=O)N[C@@H](Cc1ccc(NS(=O)(=O)O)cc1)c1nc2ccccc2s1` [compound 79], 0.74 µM.
For the compound `CCc1nc([C@H](Cc2ccc(NS(=O)(=O)O)cc2)NC(=O)[C@H](Cc2ccccc2)N(C)C(=O)OC)cs1` [compound 82], half-maximal inhibition (IC50) required 0.7 µM.
Regarding `COC(=O)N(C)[C@@H](Cc1ccccc1)C(=O)N[C@@H](Cc1ccc(NS(=O)(=O)O)cc1)c1csc(-c2cccs2)n1` [compound 83], the IC50 was 13.2 µM.
Compound `COC(=O)N[C@@H](Cc1ccccc1)C(=O)N[C@@H](Cc1ccc(NS(=O)(=O)O)cc1)c1nc(C)c(-c2ccccc2)s1` [compound 78] showed an IC50 of 0.17 µM.
For the compound `CCc1csc([C@H](Cc2ccc(NS(=O)(=O)O)cc2)NC(=O)[C@H](Cc2ccccc2)NC(=O)CNC(=O)OC)n1` [compound 80], 0.3 µM corresponded to half-maximal inhibition (IC50).
